Test results reported in US20230064254A1, “THERAPEUTIC AGENT CONTAINING FUSED PYRIMIDINE COMPOUND AS ACTIVE INGREDIENT” (TAIHO PHARMACEUTICAL CO., LTD., priority 2019, published 2023).

Tests used:
[1] = AUC comparison of fumarate of Compound 1 and Ibrutinib; type: in vivo; details: fumarate of Compound 1 (1 mpk) compared with Ibrutinib (3 mpk)
HIGA mice = experiment: Inhibition of decrease in renal function in IgA nephropathy mouse models (HIGA mice), blood urea nitrogen; type: in vivo; details: for blood urea nitrogen level (BUN), compared with the vehicle group: 10 mpk orally once a day for 6 weeks, FIG. 3, 10 mg/kg
Protocol: The present test was carried out, using HIGA mice that had been reported as mouse models of IgA nephropathy (Muso et al., Kidney International 1996 50: 1946-1957). A vehicle, a fumarate of Compound 1, or Ibrutinib (Comparative Example 1) was orally administered to 14-week-old to 16-week-old HIGA mice (Japan SLC, Inc.) once a day, continuously for 6 weeks. The control mice were not IgA nephropathy mouse models (HIGA mice), but were Balb/c mice (Japan SLC, Inc.) with the same age in weeks as described above. The vehicle was 0.5% HPMC. The daily doses were set as the following: the vehicle: 10 ml/kg, the fumarate of Compound 1: 10 mpk, and Ibrutinib: 30 mpk. […] Peripheral blood was collected from […], and the urea nitrogen level in the blood was measured. Using UREA NITROGEN (BUN) Colorimetric Detection Kit (Arbor Assays), the urea nitrogen level in the blood was measured.

mouse B cells = experiment: Effect of inhibiting IgG production in mouse B cells; type: cell-based; details: CD43-negative B cells from BALB/c mouse spleen, anti-CD40 antibody and IL-4 stimulation, cultured 8 days, ELISA; FIG. 1
Protocol: The present test was carried out with reference to the Non-Patent literature (Castigli et al., J Allergy Clin Immunol 2007 120(4): 885-91). A CD43-negative B cell fraction was separated from the spleen collected from BALB/c mice, and was then suspended in a 10% FBS-containing RPMI1640 culture medium, to which an anti-CD40 antibody and IL-4 had been added. A fumarate of Compound 1 was serially diluted with DMSO, and was then added to a plate, at the same time as the seeding of the cells onto the plate. A 10% FBS-containing RPMI culture medium, to which neither an anti-CD40 antibody nor IL-4 had been added, was used as a control. DMSO, which was added to a plate at the same time as the seeding of the cells on the plate, was defined as a vehicle. The cells were cultured for 8 days at 37° C. in a CO2 incubator, and thereafter, a culture supernatant was recovered. Using an anti-IgG antibody ELISA kit (Thermo Fisher Scientific), the IgG concentration in the culture supernatant was measured.

[2] = test system: Human monocytic cells THP-1; experiment: Inhibition of TNFα cytokine production by IgG stimulation; type: cell-based; details: THP-1 cells on solid-phased human IgG, cultured 4 hours, ELISA; FIG. 2
Protocol: The present test was carried out with reference to the Non-Patent literature (Chang et al., Arthritis Res Ther 2011 13(4): R115). Human monocytic cells THP-1 suspended in a 10% FBS-containing RPMI1640 culture medium were seeded on a 96-well plate, on which human IgG had been solid-phased. A fumarate of Compound 1 was serially diluted with DMSO, and was then added to the plate, on which the cells had been seeded. The cells seeded into a well of the plate, in which IgG had not been solid-phased, were used as a control. DMSO, which was added to the plate at the same time as the seeding of the cells, was defined as a vehicle. The cells were cultured for 4 hours at 37° C. in a CO2 incubator, and thereafter, a culture supernatant was recovered. Using an anti-TNFα ELISA kit (R & D system), the concentration of TNFα in the culture supernatant was measured.

Row | AUC values [1] | Structure (SMILES) | blood urea nitrogen level (BUN), compared with the vehicle group (HIGA mice) | blood urea nitrogen level (BUN), compared with Comparative Example 1 (Ibrutinib) (HIGA mice; fumarate of Compound 1 10 mpk vs Ibrutinib 30 mpk, orally once a day for 6 weeks, FIG. 3) | IgG concentration in the culture supernatant (IgG production) (mouse B cells) | concentration of TNFα in the culture supernatant (TNFα production) [2] | medicinal effects in HIGA mice (blood urea nitrogen level) (HIGA mice; orally once a day for 6 weeks, fumarate of Compound 1 10 mpk, Ibrutinib 30 mpk)
1 | equivalent AUC values | C=CC(=O)N1CCC[C@@H](n2nc(C(=O)Nc3nc4ccccc4o3)c3c(N)ncnc32)C1 [fumarate of Compound 1, (R)-1-(1-acryloylpiperidin-3-yl)-4-amino-N-(benzo[d]oxazol-2-yl)-1H-pyrazolo[3,4-d]pyrimidine-3-carboxamide] | inhibits an increase in the blood urea nitrogen level | significantly reduces the blood urea nitrogen level | – | – | –
2 | equivalent AUC values | C=CC(=O)N1CCC[C@@H](n2nc(-c3ccc(Oc4ccccc4)cc3)c3c(N)ncnc32)C1 [Ibrutinib, reference compound] | – | – | – | – | –
3 | – | C=CC(=O)N1CCC[C@@H](n2nc(C(=O)Nc3nc4ccccc4o3)c3c(N)ncnc32)C1 [Compound 1, (R)-1-(1-acryloylpiperidin-3-yl)-4-amino-N-(benzo[d]oxazol-2-yl)-1H-pyrazolo[3,4-d]pyrimidine-3-carboxamide] | significantly reduce the blood urea nitrogen level (BUN) | – | inhibited IgG production in a dose-dependent manner | inhibited TNFα production in a dose-dependent manner | exhibited excellent medicinal effects
